# Test results taken from publication PMC7808659, “Lotus japonicus karrikin receptors display divergent ligand-binding specificities and organ-dependent redundancy” (PLoS Genetics, 2020).
# What was measured:
# [1] = biological target: LjKAI2b (Lotus japonicus, UniProt I3S3D1, W158F); assay: differential scanning fluorimetry; intrinsic tryptophan fluorescence; assay type: binding; settings: SYPRO Tangerine; response like wild-type LjKAI2a
# [2] = biological target: LjKAI2b (Lotus japonicus, UniProt I3S3D1, W158F/M161L/L191S); assay: as above; assay type: binding; settings: SYPRO Tangerine; shift from 25 uM
# Sequence of LjKAI2b (Lotus japonicus, UniProt I3S3D1, W158F/M161L/L191S) (I3S3D1 entry or part of it W158F/M161L/L191S): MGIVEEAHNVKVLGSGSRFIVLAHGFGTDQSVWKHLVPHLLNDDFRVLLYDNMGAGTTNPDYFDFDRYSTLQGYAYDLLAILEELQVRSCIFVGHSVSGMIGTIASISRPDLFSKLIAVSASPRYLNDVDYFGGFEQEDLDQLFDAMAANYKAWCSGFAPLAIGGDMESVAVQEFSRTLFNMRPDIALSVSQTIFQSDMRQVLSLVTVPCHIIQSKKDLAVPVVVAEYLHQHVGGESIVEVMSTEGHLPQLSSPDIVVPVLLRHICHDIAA
# Text: differential scanning fluorimetry; intrinsic tryptophan fluorescence on LjKAI2b | LjKAI2b^[…],[…],F158 gained a strong response to GR24^ent-5DS
# Sequence of LjKAI2b (Lotus japonicus, UniProt I3S3D1, W158F) (I3S3D1 entry or part of it W158F): as the sequence (I3S3D1 entry or part of it W158F/M161L/L191S) above, with L161M, S191L counted along it
smiles,measurement,setting,value
CC1=C[C@@H](O/C=C2/C(=O)O[C@H]3c4ccccc4C[C@@H]23)OC1=O (racemic) [GR24^ent-5DS],differential scanning fluorimetry; intrinsic tryptophan fluorescence,[1],LjKAI2b^F158 recapitulated the response of LjKAI2a to GR24^ent-5DS
same,differential scanning fluorimetry; intrinsic tryptophan fluorescence,[2],"LjKAI2b^L161,S191,F158 gained a strong response to GR24^ent-5DS"
